Test results published in ChEMBL document CHEMBL6083219, “Rationally designed febuxostat-based hydroxamic acid and its pH-Responsive nanoformulation elicits anti-tumor activity” (Eur J Med Chem, 2024).
Active and inactive are the calls of the source. No cut-off for these calls is given here.

How the values were obtained:
MDA-MB-231 [1] = test: Downregulation of HDAC6 expression level in human MDA-MB-231 cells at 0.5 to 2 uM by Western blotting analysis; type: functional, cell-based; conditions: dose 0.5-2 µM
Rattus norvegicus [2] = test: Anti-hyperuricemic activity against potassium oxonate-induced hyperuricemia Wistar rat model assessed as increase in monocytes at 5 mg/kg measured after 14 days; type: functional, organism-based; conditions: time 14.0 day
MDA-MB-231 [3] = test: Upregulation of acetylated tubulin level in human MDA-MB-231 cells by Western blotting analysis; type: functional, cell-based; conditions: dose 0.5-2 µM
[4] = target: Xanthine dehydrogenase/oxidase (Bos taurus, UniProt P80457); test: Inhibition of bovine milk xanthine oxidase
Sequence of Xanthine dehydrogenase/oxidase (P80457 whole entry): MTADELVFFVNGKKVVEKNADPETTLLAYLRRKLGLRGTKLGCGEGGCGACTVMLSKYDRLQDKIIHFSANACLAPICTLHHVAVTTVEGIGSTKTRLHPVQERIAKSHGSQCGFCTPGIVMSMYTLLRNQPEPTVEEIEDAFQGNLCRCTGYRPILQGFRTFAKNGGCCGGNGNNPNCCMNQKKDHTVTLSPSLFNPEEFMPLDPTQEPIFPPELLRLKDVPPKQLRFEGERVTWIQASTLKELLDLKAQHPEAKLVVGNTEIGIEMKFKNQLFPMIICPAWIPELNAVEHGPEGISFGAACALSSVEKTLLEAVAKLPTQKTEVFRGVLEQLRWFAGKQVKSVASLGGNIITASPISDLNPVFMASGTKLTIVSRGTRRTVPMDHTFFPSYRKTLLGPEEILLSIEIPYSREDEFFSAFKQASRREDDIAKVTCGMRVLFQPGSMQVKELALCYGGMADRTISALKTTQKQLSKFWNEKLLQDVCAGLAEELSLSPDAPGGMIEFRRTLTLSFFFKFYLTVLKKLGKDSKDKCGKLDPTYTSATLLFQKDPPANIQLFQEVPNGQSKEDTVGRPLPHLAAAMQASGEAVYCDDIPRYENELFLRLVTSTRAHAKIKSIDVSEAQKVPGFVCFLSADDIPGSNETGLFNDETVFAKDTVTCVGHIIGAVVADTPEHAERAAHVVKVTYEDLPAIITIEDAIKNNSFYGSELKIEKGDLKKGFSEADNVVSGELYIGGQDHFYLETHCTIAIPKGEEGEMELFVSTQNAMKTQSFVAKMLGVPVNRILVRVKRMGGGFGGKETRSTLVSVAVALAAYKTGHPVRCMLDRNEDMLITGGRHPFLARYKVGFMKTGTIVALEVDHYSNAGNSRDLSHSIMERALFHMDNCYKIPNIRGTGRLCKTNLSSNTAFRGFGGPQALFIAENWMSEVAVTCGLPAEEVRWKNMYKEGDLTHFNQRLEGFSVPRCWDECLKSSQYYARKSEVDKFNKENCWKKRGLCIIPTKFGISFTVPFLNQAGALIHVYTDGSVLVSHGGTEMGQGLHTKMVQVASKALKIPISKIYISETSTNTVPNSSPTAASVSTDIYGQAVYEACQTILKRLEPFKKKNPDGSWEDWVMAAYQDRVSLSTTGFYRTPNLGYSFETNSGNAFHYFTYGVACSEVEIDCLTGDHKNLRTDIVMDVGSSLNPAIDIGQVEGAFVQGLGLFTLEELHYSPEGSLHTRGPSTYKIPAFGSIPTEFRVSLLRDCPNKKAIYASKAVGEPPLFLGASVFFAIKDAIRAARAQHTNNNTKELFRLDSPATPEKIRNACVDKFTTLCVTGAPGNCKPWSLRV

Rattus norvegicus [5] = test: Anti-hyperuricemic activity against potassium oxonate-induced hyperuricemia Wistar rat model assessed as decrease in blood urea level at 2.5 mg/kg measured after 14 days; type: functional, organism-based; conditions: time 14.0 day
Rattus norvegicus [6] = test: Anti-hyperuricemic activity against potassium oxonate-induced hyperuricemia Wistar rat model assessed as increase in hemoglobin levels at 5 mg/kg measured after 14 days; type: functional, organism-based; conditions: time 14.0 day
Rattus norvegicus [7] = test: Anti-hyperuricemic activity against potassium oxonate-induced hyperuricemia Wistar rat model assessed as increase in lymphocytes at 5 mg/kg measured after 14 days; type: functional, organism-based; conditions: time 14.0 day
HL-60 [8] = test: Induction of autophagy in human HL-60 cells assessed as upregulation of LC3-II expression level at 0.5 to 2 uM by Western blotting assay; type: functional, cell-based; conditions: dose 0.5-2 µM
K562 = test: Cytotoxicity against human K562 cells incubated for 1 day by MTT assay; type: functional, cell-based; conditions: K562, 24 h
Rattus norvegicus [9] = test: Anti-hyperuricemic activity against potassium oxonate-induced hyperuricemia Wistar rat model assessed as improvement in renal condition by measuring decrease in tubular cell swelling at 10 mg/kg measured after 14 days by H and E staining based assay; type: functional, organism-based; conditions: time 14.0 day
HL-60 [10] = test: Antitumor activity against human HL-60 cells xenografted in BALB/c nude mouse model assessed as reduction in tumor volume at 50 to 100 mg/kg, ip measured twice a week for 22 days; type: functional, organism-based; conditions: dose 50-100 mg/kg, time 22.0 day
HL-60 [11] = test: Downregulation of mTOR expression level in human HL-60 cells at 0.5 to 2 uM by Western blotting analysis; type: functional, cell-based; conditions: dose 0.5-2 µM
Rattus norvegicus [12] = test: Anti-hyperuricemic activity against potassium oxonate-induced hyperuricemia Wistar rat model assessed as reduction in DCT expansion at 10 mg/kg measured after 14 days by H and E staining based assay; type: functional, organism-based; conditions: time 14.0 day
MDA-MB-231 [13] = test: Upregulation of acetylated histone H3 level in human MDA-MB-231 cells by Western blotting analysis; type: functional, cell-based; conditions: dose 0.5-2 µM
HL-60 [14] = test: Upregulation of acetylated alpha tubulin level in human HL-60 cells by Western blotting analysis; type: functional, cell-based; conditions: dose 0.5-2 µM
HL-60 [15] = test: Downregulation of HDAC3 expression level in human HL-60 cells at 0.5 to 2 uM by Western blotting analysis; type: functional, cell-based; conditions: dose 0.5-2 µM
Rattus norvegicus [16] = test: Anti-hyperuricemic activity against potassium oxonate-induced hyperuricemia Wistar rat model assessed as decrease in number of basophils at 5 mg/kg measured after 14 days; type: functional, organism-based; conditions: time 14.0 day
Rattus norvegicus [17] = test: Anti-hyperuricemic activity against potassium oxonate-induced hyperuricemia Wistar rat model assessed as decrease in number of eosinophils at 5 mg/kg measured after 14 days; type: functional, organism-based; conditions: time 14.0 day
MDA-MB-231 [18] = test: Downregulation of HDAC3 expression level in human MDA-MB-231 cells at 0.5 to 2 uM by Western blotting analysis; type: functional, cell-based; conditions: dose 0.5-2 µM
HL-60 [19] = type: functional, cell-based; conditions: Homo sapiens, HL-60, 48 h
MDA-MB-231 [20] = test: Induction of apoptosis in human MDA-MB-231 cells assessed as G2/M phase arrest at 0.5 to 1 uM incubated for 48 hrs; type: functional, cell-based; conditions: dose 0.5-1 µM
Rattus norvegicus [21] = test: Anti-hyperuricemic activity against potassium oxonate-induced hyperuricemia Wistar rat model assessed as decrease in serum creatinine level at 5 to 10 mg/kg measured after 14 days; type: functional, organism-based; conditions: dose 5-10 mg/kg, time 14.0 day
Rattus norvegicus [22] = test: Anti-hyperuricemic activity against potassium oxonate-induced hyperuricemia Wistar rat model assessed as increase in RBC at 5 mg/kg measured after 14 days; type: functional, organism-based; conditions: time 14.0 day
MDA-MB-231 [23] = test: Downregulation of HDAC1 expression level in human MDA-MB-231 cells at 0.5 to 2 uM by Western blotting analysis; type: functional, cell-based; conditions: dose 0.5-2 µM
Rattus norvegicus [24] = test: Anti-hyperuricemic activity against potassium oxonate-induced hyperuricemia Wistar rat model assessed as improvement in renal condition at 5 mg/kg by measuring decrease in enlargement of glomeruli measured after 14 days by H and E staining based assay; type: functional, organism-based; conditions: time 14.0 day
HL-60 [25] = test: Induction of autophagy in human HL-60 cells at 0.5 to 2 uM by acridine orange staining based microscopic assay; type: functional, cell-based; conditions: dose 0.5-2 µM
Rattus norvegicus [26] = test: Anti-hyperuricemic activity against potassium oxonate-induced hyperuricemia Wistar rat model assessed as decrease in serum uric acid level at 10 mg/kg measured after 14 days; type: functional, organism-based; conditions: time 14.0 day
MDA-MB-231 [27] = test: Downregulation of HDAC2 expression level in human MDA-MB-231 cells at 0.5 to 2 uM by Western blotting analysis; type: functional, cell-based; conditions: dose 0.5-2 µM
Rattus norvegicus [28] = test: Anti-hyperuricemic activity against potassium oxonate-induced hyperuricemia Wistar rat model assessed as improvement in renal condition by measuring decrease in tubular cell necrosis at 10 mg/kg measured after 14 days by H and E staining based assay; type: functional, organism-based; conditions: time 14.0 day
HL-60 [29] = test: Cytotoxicity against human HL-60 cells incubated for 1 day by MTT assay; type: functional, cell-based; conditions: HL-60, 24 h
Rattus norvegicus [30] = test: Anti-hyperuricemic activity against potassium oxonate-induced hyperuricemia Wistar rat model assessed as increase in neutrophils at 5 mg/kg measured after 14 days; type: functional, organism-based; conditions: time 14.0 day
Rattus norvegicus [31] = test: Anti-hyperuricemic activity against potassium oxonate-induced hyperuricemia Wistar rat model assessed as improvement in renal condition by measuring normal glomeruli size at 10 mg/kg measured after 14 days by H and E staining based assay; type: functional, organism-based; conditions: time 14.0 day
HL-60 [32] = test: Induction of apoptosis in human HL-60 cells assessed as morphological changes at 0.5 to 2 uM by DAPI staining based microscopic analysis; type: functional, cell-based; conditions: dose 0.5-2 µM
Rattus norvegicus [33] = test: Anti-hyperuricemic activity against potassium oxonate-induced hyperuricemia Wistar rat model assessed as enhancement in complete blood count at 10 mg/kg measured after 14 days; type: functional, organism-based; conditions: time 14.0 day
Rattus norvegicus [34] = test: Anti-hyperuricemic activity against potassium oxonate-induced hyperuricemia Wistar rat model assessed as effect on complete blood count at 2.5 mg/kg measured after 14 days; type: functional, organism-based; conditions: time 14.0 day
HL-60 [35] = test: Antitumor activity against human HL-60 cells xenografted in ip dosed BALB/c nude mouse model assessed as reduction in tumor volume and measured twice a week for 22 days; type: functional, organism-based; conditions: dose 50-100 mg/kg, time 22.0 day
MOLT-4 = test: Cytotoxicity against human MOLT-4 cells incubated for 1 day by MTT assay; type: functional, cell-based; conditions: MOLT-4, 24 h
HL-60 [36] = test: Upregulation of acetylated histone H3 level in human HL-60 cells by Western blotting analysis; type: functional, cell-based; conditions: dose 0.5-2 µM
NCI-H1975 = type: functional, cell-based; conditions: Homo sapiens, NCI-H1975, 48 h
Rattus norvegicus [37] = test: Anti-hyperuricemic activity against potassium oxonate-induced hyperuricemia Wistar rat model assessed as decrease in serum uric acid level at 2.5 mg/kg measured after 14 days; type: functional, organism-based; conditions: time 14.0 day
HH = test: Cytotoxicity against human HH cells incubated for 1 day by MTT assay; type: functional, cell-based; conditions: 24 h
MDA-MB-231 [38] = test: Induction of autophagy in human MDA-MB-231 cells assessed as upregulation of LC3-II expression level at 1 to 4 uM by Western blotting assay; type: functional, cell-based; conditions: dose 1-4 µM
Rattus norvegicus [39] = test: Anti-hyperuricemic activity against potassium oxonate-induced hyperuricemia Wistar rat model assessed as improvement in renal condition at 2.5 mg/kg measured after 14 days by H and E staining based assay; type: functional, organism-based; conditions: time 14.0 day

Cc1nc(-c2ccc(OCC(C)C)c(C#N)c2)sc1C(=O)NCCCCCCC(=O)NO
Activity (MDA-MB-231 [1]): Active | Activity (Rattus norvegicus [2]): Active | Activity (MDA-MB-231 [3]): Dose-dependent-effect | IC50 [4]: 6.6 nM | Activity (Rattus norvegicus [5]): inactive | Activity (Rattus norvegicus [6]): Active | Activity (Rattus norvegicus [7]): Active | Activity (HL-60 [8]): Active | IC50 (K562): 1210 nM | Activity (Rattus norvegicus [9]): Active | Activity (HL-60 [10]): Active; Activity More Potent Than Saha | Activity (HL-60 [11]): Active | Activity (Rattus norvegicus [12]): Active | Activity (MDA-MB-231 [13]): Dose-dependent-effect | Activity (HL-60 [14]): Dose-dependent-effect | Activity (HL-60 [15]): Active; Activity More Potent Than Saha | Activity (Rattus norvegicus [16]): Active | Activity (Rattus norvegicus [17]): Active | Activity (MDA-MB-231 [18]): Active | IC50 (HL-60 [19]): 706 nM | Activity (MDA-MB-231 [20]): Active | Activity (Rattus norvegicus [21]): Active | Activity (Rattus norvegicus [22]): Active | Activity (MDA-MB-231 [23]): Active | Activity (Rattus norvegicus [24]): Active | Activity (HL-60 [25]): Active | Activity (Rattus norvegicus [26]): Active | Activity (MDA-MB-231 [27]): Active | Activity (Rattus norvegicus [28]): Active | IC50 (HL-60 [29]): 706 nM | Activity (Rattus norvegicus [30]): Active | Activity (Rattus norvegicus [31]): Active | Activity (HL-60 [32]): Active | Activity (Rattus norvegicus [33]): Active | Activity (Rattus norvegicus [34]): inactive | Activity (HL-60 [35]): Dose-dependent-effect | IC50 (MOLT-4): 1190 nM | Activity (HL-60 [36]): Dose-dependent-effect | IC50 (NCI-H1975): 5440 nM | Activity (Rattus norvegicus [37]): inactive | IC50 (HH): 1090 nM | Activity (MDA-MB-231 [38]): Active | Activity (Rattus norvegicus [39]): inactive
